Measurements as given in patent US20240334934A1, “FUNGICIDE MIXTURE” (priority 2021, published 2024).
Where two headings read alike, the source gives them in different places.

What was measured:
[1] = test system: Zymoseptoria tritici K6105; experiment: Efficacy of mixtures of streptimidone and CtmC, liquid culture in PDB, optical density 620 nm; format: cell-based
[2] = test system: Zymoseptoria tritici K6420; experiment: as above; format: cell-based; settings: K6420, read-out: % Efficacy
Mycosphaerella arachidis [3] = experiment: Efficacy of purified CtmC in-vitro, microtiter plate growth inhibition; format: cell-based; settings: rate 10 ppm; approximately 5-6 days at 24° C.
Method: CtmC was dissolved in DMSO (Dimethylsulfoxid) to a final concentration of 1000 ppm to create a stock solution. A second dilutions of 1:10 was made in water+0.025% Tween 20. From this second dilution 10 μl are dispensed into a 96-well plate. To each well, 90 μl of medium with fungal spores are added and mixed, resulting in final CtmC concentrations of 10 ppm. All wells containing CtmC also contain DMSO (1%) and Tween 20 (0.0025%).
Mycosphaerella arachidis (Brown leaf spot of groundnut): Conidia of the fungus from cryogenic storage were directly mixed into nutrient broth (PDB potato dextrose broth). After placing a solution of the test compounds into a microtiter plate (96-well format) the nutrient broth containing the fungal spores was added. The test plates were incubated at 24° C. and the inhibition of growth was determined photometrically after approximately 5-6 days at 620 nm.

Puccinia triticina = experiment: Leaf disc assay, wheat leaf segments, preventive; format: in vivo; settings: rate 20 ppm, 8 dpi
Method: A CtmC stock was generated at 1000 ppm in DMSO, then Diluted 1:50 in water+Tween 20 at 0.025% resulting in a 20 ppm solution.
Puccinia triticina (also known as recondite, Brown rust, wheat): Wheat leaf segments are placed on agar in multiwell plates (24-well format) and sprayed with test solutions. After drying, the leaf disks are inoculated with a spore suspension of the fungus. After appropriate incubation the activity of a compound is assessed 8 dpi (days after inoculation) as preventive fungicidal activity.

Zymoseptoria tritici = experiment: Greenhouse test, wheat, preventative; format: in vivo; settings: 1 day preventative, EC50 formulation
Method: (§1) Purified Cyclothiazomycin C (CtmC) was formulated as an EC50 formulation. The formulation was diluted in water at rates of 100 ppm and 50 ppm of CtmC. Plants were treated with 400 L/ha of the diluted product supplemented with an adjuvant to improve sticking and spreading, resulting in a treatment of 40 g/ha and 20 g/ha of CtmC, respectively.
Zymoseptoria tritici wheat/preventative (Septoria tritici leaf spot on wheat). 2-week old wheat plants cv. Riband are sprayed in a spray chamber with the formulated test compound diluted in water. The test plants are inoculated by spraying a spore suspension on them one day after application. After an incubation period of 1 day at 22° C./21° C. (day/night) and 95% rh, the inoculated test plants are kept at 22° C./21° C. (day/night) and 70% rh in a greenhouse. Efficacy is assessed directly when an appropriate level of disease appears on untreated check plants (16-19 days after application).

Mycosphaerella arachidis [4] = experiment: Greenhouse test, peanut (groundnut), preventative; format: in vivo; settings: 1 day preventative, EC50 formulation
Method: as §1
Mycosphaerella arachidis peanut/preventative (Brown leaf spot on groundnut) 3-week old peanut plants cv. Georgia Green are sprayed in a spray chamber with the formulated test compound diluted in water. The test plants are inoculated by spraying them with a spore suspension on their lower leaf surface one day after application. After an incubation period of 4 days under a plastic hood at 23° C. and 100% rh, the inoculated test plants are kept at 23° C./20° C. (day/night) and 70% rh in a greenhouse. The percentage leaf area covered by disease is assessed when an appropriate level of disease appears on untreated check plants (12-14 days after application).

[5] = test system: Fusarium virguliforme isolate 1; experiment: Effect of Tween 20 on efficacy of purified CtmC, EC50; format: cell-based
Excerpt: (§2) This is contrary to our results. In order to eliminate the possibility that the fungicidal effect that we observe was down to the presence of Tween 20 we carried out some experiments like those in Example 3 but with various levels of Tween 20, including none.
(§3) The experiment at outlined in Example 3 was repeated to evaluate the EC50 values for CtmC control on Fusarium virguliforme in presence of 4 different rates of Tween20: 0% (absence of Tween 20), 0.0025%, 0.0050% […] and 0.0100%. The plate layout was identical to Example 7, except that the plates were multiplied 4 times to accommodate the different Tween 20 concentrations in the assay plate. All other experimental conditions were kept identical. Fusarium isolates were tested at 25′000 sp/ml.

[6] = test system: Fusarium virguliforme isolate 2; experiment: as above; format: cell-based
Excerpt: as §2, §3

[7] = test system: Fusarium sporotrichioides K7901; format: cell-based; settings: CtmC 10 ppm
Tilletia tritici K5212 = experiment: Efficacy of purified CtmC alone in-vitro, 96 well plate, OD 620 nm; format: cell-based; settings: CtmC 10 ppm
[8] = test system: a variety of fungal strains; settings: statement of WO2015191789, cited from earlier work
genus Bacillus = settings: statement of WO2015191789, Table 6; cited from earlier work

C=C1NC(=O)CNC(=O)[C@H](CCCCN)NC(=O)[C@@]2(C)NC(=O)/C(=C/C)NC(=O)[C@H]3CSC(=N3)[C@@H](CC(N)=O)CC(=O)c3ccc(nc3[C@@H](C)NC(=O)[C@@H]3CCCN3C1=O)-c1nc(cs1)C1=N[C@H](CS1)C(=O)NC(=C)c1nc(cs1)-c1nc(cs1)C1=N[C@@H](CS1)C(=O)N[C@@H](C(=O)O)CS2 [CtmC, cyclothiazomycin C]
Emax at 0.0556 ppm ([1]; K6105, read-out: % Efficacy, CtmC 0.0556 ppm alone (Streptimidone 0), lower sub-table): 0% | Emax at 0.0556 ppm ([1]; K6105, read-out: % Efficacy, CtmC 0.0556 ppm alone (Streptimidone 0), upper sub-table): 19% | Emax at 0.1667 ppm ([1]; K6105, read-out: % Efficacy, CtmC 0.1667 ppm alone (Streptimidone 0), lower sub-table): 23% | Emax at 0.1667 ppm ([1]; K6105, read-out: % Efficacy, CtmC 0.1667 ppm alone (Streptimidone 0), upper sub-table): 61% | Emax at 0.5 ppm ([1]; K6105, read-out: % Efficacy, CtmC 0.5000 ppm alone (Streptimidone 0), lower sub-table): 47% | Emax at 0.5 ppm ([1]; K6105, read-out: % Efficacy, CtmC 0.5000 ppm alone (Streptimidone 0), upper sub-table): 78% | Emax at 0.0556 ppm [2]: 0% | Emax at 0.1667 ppm [2]: 23% | Emax at 0.5 ppm [2]: 47% | control of fungal growth (%) (Mycosphaerella arachidis [3]): 100% | control of fungal growth (%) (Puccinia triticina): 90% | efficacy 20 g/ha (%) (Zymoseptoria tritici; 20 g/ha): 44% | efficacy 40 g/ha (%) (Zymoseptoria tritici; 40 g/ha): 16% | efficacy 20 g/ha (%) (Mycosphaerella arachidis [4]; 20 g/ha): 56% | efficacy 40 g/ha (%) (Mycosphaerella arachidis [4]; 40 g/ha): 65% | EC50 (ppm) ([5]; Tween 20 0%): 1.422 ppm | EC50 (ppm) ([5]; Tween 20 0.0025%): 1.053 ppm | EC50 (ppm) ([5]; Tween 20 0.0050%): 0.8103 ppm | EC50 (ppm) ([5]; Tween 20 0.0100%): 1.436 ppm | EC50 (ppm) ([6]; Tween 20 0%): 1.098 ppm | EC50 (ppm) ([6]; Tween 20 0.0025%): 0.889 ppm | EC50 (ppm) ([6]; Tween 20 0.0050%): 0.7844 ppm | EC50 (ppm) ([6]; Tween 20 0.0100%): 1.035 ppm | efficacy (%) [7]: 71% | optical density at 620 nm ([7]; blank 0.052, untreated 0.666): 0.231 | efficacy (%) (Tilletia tritici K5212): 96% | optical density at 620 nm (Tilletia tritici K5212; blank 0.046, untreated 0.451): 0.062 | growth inhibitory action toward a variety of fungal strains ([8]; listed as Cyclothiazomycin C): no fungal inhibitory action | growth inhibitory action toward a variety of fungal strains ([8]; listed as cyclothiazomycin C): none was observed | inhibitory activity (genus Bacillus): greatest inhibitory activity
